Like-named read-outs stand apart in the source and are kept apart here.
How the values were obtained:
[1] = target: GABAA receptor ([35S]-TBPS binding site, rat brain cortical membranes); assay: Displacement of [35S]-TBPS binding, rat brain cortical membranes; conditions: 5 μM GABA, 2 nM [35S]-TBPS; ± standard error of the means
Procedure, shortened: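 Rat cortical P2 membranes (0.5 mg/mL protein) incubated 2 h at room temperature with 2 nM [35S]-TBPS, 5 μM GABA and steroid (1 nM–10 μM) in 200 mM NaCl/50 mM potassium phosphate, pH 7.4. Filter-bound radioactivity counted; IC50 from Hill equation fit, triplicate points.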

[2] = target: T1, rat α1β2γ2 GABAA Receptor (Rattus norvegicus, UniProt P18508+P62813+P63138, INS375LLRMFSFK); assay: Xenopus oocyte two-electrode voltage-clamp electrophysiology; assay type: cell-based; conditions: for Oocyte electrophysiology, ratio of currents in presence/absence of compound, 0.1 μM: 0.1 μM compound co-applied with 2 μM GABA; for Oocyte electrophysiology, ratio of currents in presence/absence of compound, 0.1 μM / Oocyte electrophysiology, ratio of currents in presence/absence of compound, 1 μM / Oocyte electrophysiology, ratio of currents in presence/absence of compound, 10 μM: −70 mV; for Oocyte electrophysiology, ratio of currents in presence/absence of compound, 1 μM: 1 μM compound co-applied with 2 μM GABA; for Oocyte electrophysiology, ratio of currents in presence/absence of compound, 10 μM: 10 μM compound co-applied with 2 μM GABA; for Gating (10 μM), ratio of compound only current/2 μM GABA current: direct current gated by 10 μM compound in the absence of GABA
T1 construct: from linearized pBluescript vectors containing receptor coding regions; expressed in transfected cells; host or cells: Xenopus laevis oocytes injected with in vitro transcribed capped mRNA
Procedure, shortened: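 Oocytes injected with rat α1, β2, γ2L mRNA, voltage-clamped at −70 mV 2-5 days later in ND96. Compounds co-applied with 2 μM GABA for 20 s; peak current ratio with/without compound, n≥4 oocytes. (G): current from 10 μM compound alone, as ratio to 2 μM GABA current.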

Xenopus laevis tadpoles = assay: Tadpole loss of righting (LRR) and swimming (LSR) reflexes; assay type: in vivo; conditions: 3 h equilibration at room temperature; for EC50: read-out: LSR EC50 (loss of swimming response)
Procedure, shortened: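 Groups of 10 early prelimb-bud Xenopus laevis tadpoles were held for 3 h at room temperature in oxygenated Ringer's containing compound (DMSO ≤0.1%). Loss of righting was scored as failure to right within 5 sec after flipping, and loss of swimming as failure to swim when touched. EC50 came from a Hill equation fit.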

T1 sequence (P62813 28-455, stated change not applied): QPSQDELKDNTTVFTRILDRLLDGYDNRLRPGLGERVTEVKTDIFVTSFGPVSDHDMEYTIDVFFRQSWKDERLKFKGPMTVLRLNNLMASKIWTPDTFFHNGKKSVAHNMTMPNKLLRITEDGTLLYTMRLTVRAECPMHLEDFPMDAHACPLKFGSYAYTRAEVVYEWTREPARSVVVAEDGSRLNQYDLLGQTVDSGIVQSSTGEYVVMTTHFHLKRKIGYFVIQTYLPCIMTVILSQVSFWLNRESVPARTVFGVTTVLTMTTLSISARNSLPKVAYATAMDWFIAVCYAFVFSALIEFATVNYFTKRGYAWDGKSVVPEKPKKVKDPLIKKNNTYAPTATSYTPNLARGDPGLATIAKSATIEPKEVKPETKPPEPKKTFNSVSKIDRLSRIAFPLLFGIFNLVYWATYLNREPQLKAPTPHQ
T1 sequence (P63138 26-474, stated change not applied): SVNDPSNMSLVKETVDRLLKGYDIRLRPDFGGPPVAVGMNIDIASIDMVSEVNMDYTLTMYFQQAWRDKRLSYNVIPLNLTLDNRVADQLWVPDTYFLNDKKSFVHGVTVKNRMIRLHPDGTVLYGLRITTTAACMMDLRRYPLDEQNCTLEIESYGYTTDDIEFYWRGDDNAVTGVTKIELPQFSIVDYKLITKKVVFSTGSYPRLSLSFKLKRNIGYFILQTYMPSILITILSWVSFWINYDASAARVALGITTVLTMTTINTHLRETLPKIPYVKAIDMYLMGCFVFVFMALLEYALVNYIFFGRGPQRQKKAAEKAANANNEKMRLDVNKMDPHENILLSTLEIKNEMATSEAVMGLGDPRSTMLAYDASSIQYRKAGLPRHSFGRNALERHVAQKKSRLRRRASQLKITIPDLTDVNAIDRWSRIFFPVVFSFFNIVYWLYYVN
T1 sequence (P18508 with tags, fused parts or gaps INS375LLRMFSFK): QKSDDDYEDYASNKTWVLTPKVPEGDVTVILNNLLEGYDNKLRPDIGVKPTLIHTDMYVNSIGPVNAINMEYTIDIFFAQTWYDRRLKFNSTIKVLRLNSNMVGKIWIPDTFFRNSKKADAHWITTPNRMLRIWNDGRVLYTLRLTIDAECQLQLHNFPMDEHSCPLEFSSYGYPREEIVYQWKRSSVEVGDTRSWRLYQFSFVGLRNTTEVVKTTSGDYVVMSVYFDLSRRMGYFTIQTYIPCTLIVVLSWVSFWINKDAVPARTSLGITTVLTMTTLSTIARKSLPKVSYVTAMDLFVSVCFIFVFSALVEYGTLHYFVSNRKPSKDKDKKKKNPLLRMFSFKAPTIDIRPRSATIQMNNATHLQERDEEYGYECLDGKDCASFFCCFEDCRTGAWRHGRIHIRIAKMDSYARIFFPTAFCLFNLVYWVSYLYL

Row | SMILES | IC50 [1] [µM] | Oocyte electrophysiology, ratio of currents in presence/absence of compound, 0.1 μM [2] | Oocyte electrophysiology, ratio of currents in presence/absence of compound, 1 μM [2] | Oocyte electrophysiology, ratio of currents in presence/absence of compound, 10 μM [2] | Gating (10 μM), ratio of compound only current/2 μM GABA current [2] | LRR ED50 (loss of righting response) (Xenopus laevis tadpoles) | LSR EC50 (loss of swimming response) (Xenopus laevis tadpoles) | melting point [°C] | EC50 (Xenopus laevis tadpoles) [µM] | EC50 (Xenopus laevis tadpoles; Xenopus laevis, 3 h) [µM]
1 | CC12CCC(O)CC1CCC1C2CCC23CCC(=CC#N)C2CCC13 (stereo not drawn) [Compound 96, (3α,5α,20E)-3-Hydroxy-18,21-cyclopregnan-20-ylideneacetonitrile] | 0.168 ± 0.032 | 1.40 ± 0.21 | 2.33 ± 0.30 | 2.90 ± 0.29 | 0.03 ± 0.03 | 2.77 ± 1.16 µM | None @ 10 | 201 to 202.5 | – | –
2 | C[C@]12CC[C@@H](O)C[C@@H]1CCC1C3CC[C@@H]4[C@H](C#N)CCC[C@]34CCC12 (stereo partly drawn) [Compound 39, (3α,5α,20R)-3-Hydroxy-13,24-cyclo-18,21-dinorcholane-20-carbonitrile] | 1.67 ± 0.138 | 1.04 ± 0.03 | 1.12 ± 0.08 | 1.70 ± 0.10 | 0.04 ± 0.04 | 0.49 ± 0.09 µM | None @ 10 | 213 to 214 | – | –
3 | CC(=O)C1=CCCC23CCC4C(CCC5CC(O)CCC54C)C2CCC13 (stereo not drawn) [Compound 83, (3α,5α)-1-[3-Hydroxy-13,24-cyclo-18,21-dinorchol-20(22)-en-20-yl]ethanone] | 3.19 | 0.89 ± 0.02 | 0.86 ± 0.04 | 1.15 ± 0.04 | 0.00 ± 0.00 | 7.20 ± 6.62 µM | None @ 10 | 198 to 200 | – | –
4 | CC12CCC(O)CC1CCC1C2CCC23C(=O)C=CCC2CCC13 (stereo not drawn) [Compound 35b, (3α,5β)-3-Hydroxy-13,24-cyclo-18,21-dinorchol-22-en-24-one] | 0.105 ± 0.012 | 1.36 ± 0.60 | 3.15 ± 1.19 | 21.38 ± 11.08 | 0.20 ± 0.19 | 0.40 ± 0.13 µM | – | 222 to 223 | 1 | –
5 | CC12CCC(O)CC1CCC1C2CCC23CCC=CC2CCC13 (stereo not drawn) [Compound 13b, (3α,5β)-13,24-Cyclo-18,21-dinorchol-20(22)-en-3-ol] | 0.484 ± 0.103 | 1.44 ± 0.17 | 2.09 ± 0.35 | 3.48 ± 1.01 | −0.05 ± 0.09 | 1.28 ± 1.80 µM | – | 168 to 169 | – | > 10
6 | CC12CCC(O)CC1CCC1C2CCC23C=CC(=O)CC2CCC13 (stereo not drawn) [Compound 30a, (3α,5α)-3-Hydroxy-13,24-Cyclo-18,21-dinorchol-23-en-22-one] | 1.26 ± 0.1 | 1.12 ± 0.08 | 1.54 ± 0.30 | 5.07 ± 0.98 | −0.04 ± 0.05 | 0.73 ± 0.16 µM | – | 168 to 170 | – | 5.48 ± 0.09
7 | COC1CCCC23CCC4C(CCC5CC(O)CCC54C)C2CCC13 [Compound 69, (3α,5α,20S)-20-Methoxy-13,24-cyclo-18,21-dinorcholan-3-ol] | 0.353 ± 0.038 | 0.90 ± 0.04 | 1.26 ± 0.09 | 1.72 ± 0.28 | 0.00 ± 0.00 | None @ 10 | None @ 10 | 182 to 183 | – | –
8 | C[C@]12CC[C@@H](O)C[C@@H]1CCC1C3CC[C@@H]4CC[C@H](C#N)C[C@]34CCC12 (stereo partly drawn) [Compound 50, (3α,5α,20S)-3-Hydroxy-13,24-cyclo-18,21-dinorcholane-23-carbonitrile] | 0.482 ± 0.02 | – | – | 2.1 ± 0.2 | – | 0.35 ± 0.07 µM | – | 157 to 159 | – | 0.95 ± 0.01
9 | CC12CCC(O)CC1CCC1C2CCC23CC(=O)C=CC2CCC13 (stereo not drawn) [Compound 22c, (3α,5β)-3-Hydroxy-13,24-cyclo-18,21-dinorchol-20(22)-en-23-one] | 0.268 ± 0.043 | 1.07 ± 0.10 | 1.83 ± 0.25 | 4.50 ± 0.46 | −0.02 ± 0.01 | 1.05 ± 0.00 µM | – | 209 to 211 | 2.72 ± 0.01 | –
10 | C[C@]12CC[C@@H](O)C[C@@H]1CCC1C3CC[C@@H]4CC(=O)CC[C@]34CCC12 (stereo partly drawn) [Compound 3a, (3α,5α)-3-Hydroxy-13,24-cyclo-18,21-dinorcholan-22-one] | 1.44 | 1.30 ± 0.15 | 1.61 ± 0.22 | 2.93 ± 0.68 | 0.06 ± 0.06 | 2.37 ± 0.47 µM | None @ 10 | 195 to 197 | – | –
11 | CC12CCC(O)CC1CCC1C2CCC23CCC(=O)CC2CCC13 (stereo not drawn) [Compound 3b, (3α,5β)-3-Hydroxy-13,24-cyclo-18,21-dinorcholan-22-one] | 3.23 | 0.97 ± 0.01 | 1.11 ± 0.14 | 2.65 ± 0.33 | −0.10 ± 0.06 | 2.47 ± 0.53 µM | – | 175 to 177 | – | 9.43 ± 0.06
12 | C[C@]12CC[C@@H](O)C[C@@H]1CCC1C3CC[C@@H]4CC[C@@H](C#N)C[C@]34CCC12 (stereo partly drawn) [Compound 49, (3α,5α,20R)-3-Hydroxy-13,24-cyclo-18,21-dinorcholane-23-carbonitrile] | 0.574 ± 0.026 | – | – | 1.3 ± 0.1 | – | 0.35 ± 0.09 µM | – | 182 to 183 | – | > 10
13 | C[C@]12CC[C@@H](O)C[C@H]1CCC1C3CC[C@@H]4C(=O)CCC[C@]34CCC12 (stereo partly drawn) [Compound 2b, (3α,5β)-3-Hydroxy-13,24-cyclo-18,21-dinorcholan-20-one] | 1.78 | 0.93 ± 0.06 | 1.12 ± 0.14 | 1.51 ± 0.13 | −0.25 ± 0.21 | 0.94 ± 0.55 µM | – | 220 to 222 | – | 5.48 ± 0.08

— patent publication US7781421B2, “Neuroactive 13, 24-cyclo-18, 21-dinorcholanes and structurally related pentacyclic steriods” (Washington University, priority 2003, dated 2010)
